Drug uptake and Kp data for four compounds are collected here from ChEMBL document CHEMBL1149494, “Synthesis and structure-activity relationships of retro bis-aminopyrrolidine urea (rAPU) derived small-molecule antagonists of the melanin-concentrating hormone receptor-1 (MCH-R1). Part 2” (Bioorg Med Chem Lett, 2006).

Assay type in all cases: ADME, organism-based
Data set [1] is filed under the species Rattus norvegicus. The data set is described as follows: Drug level in rat plasma. Conditions: in vivo.
Data set [2] is filed under the species Rattus norvegicus. The data set is described as follows: Drug level in rat brain. Conditions: in vivo.
Data set [3] in a line: Ratio of drug level in rat brain against plasma. Conditions: brain and plasma, read-out: BPR.

As to `CCc1ccc(-c2ccc(C(=O)N(C)[C@H]3CCN(C(=O)N4CC[C@@H](NC5CCOCC5)C4)C3)cc2)cc1`, the Drug uptake in data set [1] was found to be 14.5 ng/g; in data set [2], 5.1 ng/g. In addition, the Kp in data set [3] was 0.4.

With `CCc1ccc(-c2ccc(C(=O)N(C)[C@H]3CCN(C(=O)N4CC[C@@H](N(C)C5CCOCC5)C4)C3)s2)cc1`, the Drug uptake in data set [1] was found to be 6.7 ng/g; in data set [2], 21.8 ng/g. Moreover, the Kp in data set [3] was found to be 3.4.

Turning to `CCc1ccc(-c2ccc(C(=O)N(C)[C@H]3CCN(C(=O)N4CC[C@@H](N5CCCCC5)C4)C3)cc2)cc1`, the Drug uptake is 6.2 ng/g in data set [1] and 38.3 ng/g in data set [2]. Moreover, the Kp in data set [3] amounted to 6.5.

As for `CCc1ccc(-c2ccc(C(=O)N(C)[C@H]3CCN(C(=O)N4CC[C@@H](NC5CCOCC5)C4)C3)s2)cc1`, the Drug uptake in data set [1] is 30.5 ng/g; in data set [2], 17.3 ng/g. Also, the Kp in data set [3] was determined as 0.6.
